Test results taken from ChEMBL document CHEMBL1146385, “Discovery of novel phenoxyacetic acid derivatives as antimycobacterial agents” (2007).
In brackets after ≈: the same amount, converted by molar mass.

test system: Mycobacterium tuberculosis; assay: Antimycobacterial activity against isoniazid-resistant Mycobacterium tuberculosis by broth dilution assay; type: functional

SMILES | MIC [µg/mL]
COc1cc(C2=NN(C(N)=S)C(Cc3ccccc3)C2)ccc1OCC(=O)O (configuration not stated) | 6.25 (≈ 15.6 µM)
COc1cc(C2=NN(C(N)=S)C(c3ccccc3O)C2)ccc1OCC(=O)O (configuration not stated) | 0.58 (≈ 1.44 µM)
COc1cc(C2=NN(C(N)=O)C(c3ccccc3)C2)ccc1OCC(=O)O (configuration not stated) | 6.12 (≈ 16.6 µM)
COc1cc(C2=NN(C(N)=O)C(c3ccc(C)cc3)C2)ccc1OCC(=O)O (configuration not stated) | 6.25 (≈ 16.3 µM)
COc1cc(C2=NN(C(N)=S)C(c3ccc(O)cc3)C2)ccc1OCC(=O)O (configuration not stated) | 0.2 (≈ 0.498 µM)
COc1cc(C2=NN(C(N)=O)C(c3ccccc3Cl)C2)ccc1OCC(=O)O (configuration not stated) | 1.26 (≈ 3.12 µM)
COc1cc(C2=NN(C(N)=O)C(c3ccc(N)cc3)C2)ccc1OCC(=O)O (configuration not stated) | 5.42 (≈ 14.1 µM)
COc1cc(C2=NN(C(N)=S)C(c3ccc(C)cc3)C2)ccc1OCC(=O)O (configuration not stated) | 6.15 (≈ 15.4 µM)
COc1cc(C2=NN(C(N)=S)C(c3ccc(Cl)cc3)C2)ccc1OCC(=O)O (configuration not stated) | 0.06 (≈ 0.143 µM)
COc1cc(C2=NN(C(N)=S)C(c3ccccc3Cl)C2)ccc1OCC(=O)O (configuration not stated) | 0.12 (≈ 0.286 µM)
COc1cc(C2=NN(C(N)=O)C(c3ccc(F)cc3)C2)ccc1OCC(=O)O (configuration not stated) | 3.25 (≈ 8.39 µM)
COc1cc(C2=NN(C(N)=O)C(c3ccc(Cl)cc3)C2)ccc1OCC(=O)O (configuration not stated) | 0.13 (≈ 0.322 µM)
COc1cc(C2=NN(C(N)=O)C(Cc3ccccc3)C2)ccc1OCC(=O)O (configuration not stated) | 6.25 (≈ 16.3 µM)
COc1cc(C2=NN(C(N)=S)C(c3ccc(N)cc3)C2)ccc1OCC(=O)O (configuration not stated) | 12.5 (≈ 31.2 µM)
COc1cc(C2=NN(C(N)=S)C(c3cccc([N+](=O)[O-])c3)C2)ccc1OCC(=O)O (configuration not stated) | 3.12 (≈ 7.25 µM)
COc1cc(C2=NN(C(N)=S)C(c3ccccc3)C2)ccc1OCC(=O)O (configuration not stated) | 6.25 (≈ 16.2 µM)
COc1cc(C2=NN(C(N)=O)C(c3ccccc3O)C2)ccc1OCC(=O)O (configuration not stated) | 0.58 (≈ 1.51 µM)
COc1cc(C2=NN(C(N)=O)C(c3cccc([N+](=O)[O-])c3)C2)ccc1OCC(=O)O (configuration not stated) | 6.25 (≈ 15.1 µM)
COc1cc(C2=NN(C(N)=S)C(c3ccc(F)cc3)C2)ccc1OCC(=O)O (configuration not stated) | 0.96 (≈ 2.38 µM)
COc1cc(C2=NN(C(N)=O)C(c3ccc(O)cc3)C2)ccc1OCC(=O)O (configuration not stated) | 1.23 (≈ 3.19 µM)
COc1cc(C2=NN(C(N)=O)C(c3ccc([N+](=O)[O-])cc3)C2)ccc1OCC(=O)O (configuration not stated) | 6.25 (≈ 15.1 µM)
COc1cc(C2=NN(C(N)=S)C(c3ccc([N+](=O)[O-])cc3)C2)ccc1OCC(=O)O (configuration not stated) | 6.25 (≈ 14.5 µM)
